Patent US10167262B2, “Herbicidal substituted 3-arylpyrazoles” (FMC CORPORATION, priority 2014, dated 2019)

Columns and labels:
Assay type in all cases: in vivo
[1] = system: dayflower (Virginia (VA) dayflower, Commelina virginica); assay: Test E pre-/postemergence greenhouse test, plant response rating 0-100; details: scale 0 to 100; for Dayflower, VA plant response rating: Preemergence
Summary of the method: (§1)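 Visual control score, 0–100 relative to untreated plants, recorded 14–21 days after spraying. Treatments: preemergence on silt loam seedbeds and postemergence at the 1- to 4-leaf stage, with compound in surfactant-containing solvent.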

[2] = system: Italian ryegrass (Lolium multiflorum); assay: as above; details: scale 0 to 100; for Ryegrass, Italian plant response rating: Preemergence
Summary of the method: as §1

[3] = system: arrowleaf sida (Sida rhombifolia); assay: as above; details: for Arrowleaf Sida plant response rating: Preemergence
Summary of the method: as §1

[4] = system: hairy beggarticks (Bidens pilosa); assay: as above; details: scale 0 to 100; for Beggarticks plant response rating: Preemergence
Summary of the method: as §1

[5] = system: palmer pigweed (Amaranthus palmeri); assay: as above; details: scale 0 to 100; for Pigweed, Palmer plant response rating: Preemergence
Summary of the method: as §1

[6] = system: corn (Zea mays); assay: as above; details: scale 0 to 100; for Corn plant response rating: Preemergence
Summary of the method: as §1

[7] = system: waterhemp (common waterhemp, Amaranthus rudis); assay: as above; details: scale 0 to 100; for Waterhemp plant response rating: Preemergence
Summary of the method: as §1

[8] = system: field bindweed (Convolvulus arvensis); assay: as above; details: scale 0 to 100; for Field Bindweed plant response rating: Preemergence
Summary of the method: as §1

[9] = system: wild poinsettia (Euphorbia heterophylla); assay: as above; details: scale 0 to 100; for Poinsettia, Wild plant response rating: Preemergence
Summary of the method: as §1

[10] = system: fall panicum (Panicum dichotomiflorum); assay: as above; details: scale 0 to 100; for Panicum, Fall plant response rating: Preemergence
Summary of the method: as §1

[11] = system: Brazilian crabgrass (Digitaria horizontalis); assay: as above; details: Digitaria horizontalis, post-emergence, Postemergence, scale 0 to 100, read-out: Plant response rating, Crabgrass, Brazil
Summary of the method: as §1

[12] = system: waterhemp_RES2, (ALS & HPPD resistant common waterhemp, Amaranthus rudis); assay: Test E postemergence greenhouse test, plant response rating 0-100; details: scale 0 to 100
Summary of the method: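 Resistant waterhemp biotypes grown in peat/vermiculite medium and treated postemergence at 2–18 cm height (1- to 4-leaf stage). Kept in greenhouse 14 to 21 days, then visually rated against untreated controls on a 0–100 scale (0 no effect, 100 complete control).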

COCC(=O)n1cc(C(=O)c2ccccc2)c(-c2cc(Cl)cc(Cl)c2)n1 [Compound 16, 1-[4-benzoyl-3-(3,5-dichlorophenyl)-1H-pyrazol-1-yl]-2-methoxyethanone]
70: Waterhemp plant response rating ([7]; 125 g ai/ha)
25: Arrowleaf Sida plant response rating ([3]; 31 g ai/ha, scale 0 to 100) | Beggarticks plant response rating ([4]; 125 g ai/ha)
0: Dayflower, VA plant response rating ([1]; 31 g ai/ha) | Dayflower, VA plant response rating ([1]; 62 g ai/ha) | Dayflower, VA plant response rating ([1]; 125 g ai/ha) | Dayflower, VA plant response rating ([1]; 250 g ai/ha) | Dayflower, VA plant response rating ([1]; 500 g ai/ha) | Ryegrass, Italian plant response rating ([2]; 31 g ai/ha) | Ryegrass, Italian plant response rating ([2]; 62 g ai/ha) | Ryegrass, Italian plant response rating ([2]; 125 g ai/ha) | Ryegrass, Italian plant response rating ([2]; 250 g ai/ha) | Ryegrass, Italian plant response rating ([2]; 500 g ai/ha) | Beggarticks plant response rating ([4]; 31 g ai/ha) | Beggarticks plant response rating ([4]; 62 g ai/ha) | Pigweed, Palmer plant response rating ([5]; 31 g ai/ha) | Pigweed, Palmer plant response rating ([5]; 62 g ai/ha) | Pigweed, Palmer plant response rating ([5]; 125 g ai/ha) | Pigweed, Palmer plant response rating ([5]; 250 g ai/ha) | Pigweed, Palmer plant response rating ([5]; 500 g ai/ha) | Corn plant response rating ([6]; 31 g ai/ha) | Corn plant response rating ([6]; 62 g ai/ha) | Corn plant response rating ([6]; 125 g ai/ha) | Corn plant response rating ([6]; 250 g ai/ha) | Corn plant response rating ([6]; 500 g ai/ha) | Waterhemp plant response rating ([7]; 31 g ai/ha) | Field Bindweed plant response rating ([8]; 31 g ai/ha) | Field Bindweed plant response rating ([8]; 62 g ai/ha) | Field Bindweed plant response rating ([8]; 125 g ai/ha) | Field Bindweed plant response rating ([8]; 250 g ai/ha) | Poinsettia, Wild plant response rating ([9]; 31 g ai/ha) | Poinsettia, Wild plant response rating ([9]; 62 g ai/ha) | Poinsettia, Wild plant response rating ([9]; 125 g ai/ha) | Poinsettia, Wild plant response rating ([9]; 250 g ai/ha) | Poinsettia, Wild plant response rating ([9]; 500 g ai/ha) | Panicum, Fall plant response rating ([10]; 31 g ai/ha) | Panicum, Fall plant response rating ([10]; 62 g ai/ha) | Panicum, Fall plant response rating ([10]; 125 g ai/ha) | Panicum, Fall plant response rating ([10]; 250 g ai/ha) | Panicum, Fall plant response rating ([10]; 500 g ai/ha)
0%: pest or weed control at 31 g/ha ([1]; Commelina virginica, post-emergence, Postemergence, 31 g ai/ha) | pest or weed control at 62 g/ha ([1]; Commelina virginica, post-emergence, Postemergence, 62 g ai/ha) | pest or weed control at 125 g/ha ([1]; Commelina virginica, post-emergence, Postemergence, 125 g ai/ha) | pest or weed control at 250 g/ha ([1]; Commelina virginica, post-emergence, Postemergence, 250 g ai/ha) | pest or weed control at 500 g/ha ([1]; Commelina virginica, post-emergence, Postemergence, 500 g ai/ha) | pest or weed control at 31 g/ha ([2]; Lolium multiflorum, post-emergence, Postemergence, 31 g ai/ha) | pest or weed control at 62 g/ha ([2]; Lolium multiflorum, post-emergence, Postemergence, 62 g ai/ha) | pest or weed control at 125 g/ha ([2]; Lolium multiflorum, post-emergence, Postemergence, 125 g ai/ha) | pest or weed control at 250 g/ha ([2]; Lolium multiflorum, post-emergence, Postemergence, 250 g ai/ha) | pest or weed control at 500 g/ha ([2]; Lolium multiflorum, post-emergence, Postemergence, 500 g ai/ha) | Corn plant response rating (crop injury, 0 = no effect, 100 = complete kill) at 31 g/ha ([6]; Zea mays, post-emergence, Postemergence, 31 g ai/ha) | Corn plant response rating (crop injury, 0 = no effect, 100 = complete kill) at 62 g/ha ([6]; Zea mays, post-emergence, Postemergence, 62 g ai/ha) | Corn plant response rating (crop injury, 0 = no effect, 100 = complete kill) at 125 g/ha ([6]; Zea mays, post-emergence, Postemergence, 125 g ai/ha) | Corn plant response rating (crop injury, 0 = no effect, 100 = complete kill) at 250 g/ha ([6]; Zea mays, post-emergence, Postemergence, 250 g ai/ha) | Corn plant response rating (crop injury, 0 = no effect, 100 = complete kill) at 500 g/ha ([6]; Zea mays, post-emergence, Postemergence, 500 g ai/ha) | pest or weed control at 31 g/ha ([8]; Convolvulus arvensis, post-emergence, Postemergence, 31 g ai/ha) | pest or weed control at 62 g/ha ([8]; Convolvulus arvensis, post-emergence, Postemergence, 62 g ai/ha) | pest or weed control at 125 g/ha ([8]; Convolvulus arvensis, post-emergence, Postemergence, 125 g ai/ha) | pest or weed control at 250 g/ha ([8]; Convolvulus arvensis, post-emergence, Postemergence, 250 g ai/ha) | pest or weed control at 500 g/ha ([8]; Convolvulus arvensis, post-emergence, Postemergence, 500 g ai/ha) | pest or weed control at 31 g/ha ([9]; Euphorbia heterophylla, post-emergence, Postemergence, 31 g ai/ha, read-out: Plant response rating, Poinsettia, Wild) | pest or weed control at 62 g/ha ([9]; Euphorbia heterophylla, post-emergence, Postemergence, 62 g ai/ha, read-out: Plant response rating, Poinsettia, Wild) | pest or weed control at 125 g/ha ([9]; Euphorbia heterophylla, post-emergence, Postemergence, 125 g ai/ha, read-out: Plant response rating, Poinsettia, Wild) | pest or weed control at 250 g/ha ([9]; Euphorbia heterophylla, post-emergence, Postemergence, 250 g ai/ha, read-out: Plant response rating, Poinsettia, Wild) | pest or weed control at 500 g/ha ([9]; Euphorbia heterophylla, post-emergence, Postemergence, 500 g ai/ha, read-out: Plant response rating, Poinsettia, Wild) | pest or weed control at 31 g/ha ([10]; Panicum dichotomiflorum, post-emergence, Postemergence, 31 g ai/ha) | pest or weed control at 62 g/ha ([10]; Panicum dichotomiflorum, post-emergence, Postemergence, 62 g ai/ha) | pest or weed control at 31 g/ha ([11]; 31 g ai/ha) | pest or weed control at 62 g/ha ([11]; 62 g ai/ha) | pest or weed control at 125 g/ha ([11]; 125 g ai/ha) | pest or weed control at 250 g/ha ([11]; 250 g ai/ha) | pest or weed control at 500 g/ha ([11]; 500 g ai/ha)
65%: pest or weed control at 500 g/ha ([10]; Panicum dichotomiflorum, post-emergence, Postemergence, 500 g ai/ha)
30%: pest or weed control at 250 g/ha ([10]; Panicum dichotomiflorum, post-emergence, Postemergence, 250 g ai/ha)
50: Beggarticks plant response rating ([4]; 250 g ai/ha)
75: Plant response rating, Waterhemp_RES2 ([12]; 125 g ai/ha)
98%: pest or weed control at 62 g/ha ([3]; Sida rhombifolia, post-emergence, Postemergence, 62 g ai/ha, scale 0 to 100) | pest or weed control at 125 g/ha ([3]; Sida rhombifolia, post-emergence, Postemergence, 125 g ai/ha, scale 0 to 100) | pest or weed control at 250 g/ha ([3]; Sida rhombifolia, post-emergence, Postemergence, 250 g ai/ha, scale 0 to 100) | pest or weed control at 125 g/ha ([4]; Bidens pilosa, post-emergence, Postemergence, 125 g ai/ha) | pest or weed control at 250 g/ha ([4]; Bidens pilosa, post-emergence, Postemergence, 250 g ai/ha) | pest or weed control at 500 g/ha ([4]; Bidens pilosa, post-emergence, Postemergence, 500 g ai/ha) | pest or weed control at 62 g/ha ([7]; Amaranthus tuberculatus, post-emergence, Postemergence, 62 g ai/ha) | pest or weed control at 125 g/ha ([7]; Amaranthus tuberculatus, post-emergence, Postemergence, 125 g ai/ha) | pest or weed control at 250 g/ha ([7]; Amaranthus tuberculatus, post-emergence, Postemergence, 250 g ai/ha)
98: Plant response rating, Waterhemp_RES2 ([12]; 250 g ai/ha)
70%: pest or weed control at 31 g/ha ([5]; Amaranthus palmeri, post-emergence, Postemergence, 31 g ai/ha) | pest or weed control at 62 g/ha ([5]; Amaranthus palmeri, post-emergence, Postemergence, 62 g ai/ha)
30: Waterhemp plant response rating ([7]; 62 g ai/ha) | Field Bindweed plant response rating ([8]; 500 g ai/ha)
90: Arrowleaf Sida plant response rating ([3]; 125 g ai/ha, scale 0 to 100)
90%: pest or weed control at 125 g/ha ([5]; Amaranthus palmeri, post-emergence, Postemergence, 125 g ai/ha) | pest or weed control at 250 g/ha ([5]; Amaranthus palmeri, post-emergence, Postemergence, 250 g ai/ha)
100: Arrowleaf Sida plant response rating ([3]; 500 g ai/ha, scale 0 to 100) | Waterhemp plant response rating ([7]; 250 g ai/ha) | Waterhemp plant response rating ([7]; 500 g ai/ha) | Plant response rating, Waterhemp_RES2 ([12]; 500 g ai/ha)
65: Beggarticks plant response rating ([4]; 500 g ai/ha)
100%: pest or weed control at 500 g/ha ([3]; Sida rhombifolia, post-emergence, Postemergence, 500 g ai/ha, scale 0 to 100 (0 no effect, 100 complete control)) | pest or weed control at 62 g/ha ([4]; Bidens pilosa, post-emergence, Postemergence, 62 g ai/ha) | pest or weed control at 500 g/ha ([5]; Amaranthus palmeri, post-emergence, Postemergence, 500 g ai/ha) | pest or weed control at 500 g/ha ([7]; Amaranthus tuberculatus, post-emergence, Postemergence, 500 g ai/ha)
60%: pest or weed control at 125 g/ha ([10]; Panicum dichotomiflorum, post-emergence, Postemergence, 125 g ai/ha)
35: Arrowleaf Sida plant response rating ([3]; 62 g ai/ha, scale 0 to 100)
95: Arrowleaf Sida plant response rating ([3]; 250 g ai/ha, scale 0 to 100) | Plant response rating, Waterhemp_RES2 ([12]; 31 g ai/ha) | Plant response rating, Waterhemp_RES2 ([12]; 62 g ai/ha)
95%: pest or weed control at 31 g/ha ([3]; Sida rhombifolia, post-emergence, Postemergence, 31 g ai/ha, scale 0 to 100) | pest or weed control at 31 g/ha ([4]; Bidens pilosa, post-emergence, Postemergence, 31 g ai/ha) | pest or weed control at 31 g/ha ([7]; Amaranthus tuberculatus, post-emergence, Postemergence, 31 g ai/ha)
